Measurements reported in patent publication US20060235076A1, “Medicinal composition for treating infection with drug-resistant staphylococcus aureus” (priority 2003, published 2006).
In brackets after ≈: the same amount, converted by molar mass. Where two headings read alike, the source gives them in different places.

Assays:
MRSA and MSSA = assay: Antibacterial activity of gallic acid, various gallates and multivalent phenol derivatives alone (agar plate dilution method, MIC); format: cell-based, Staphylococcus aureus; conditions: Staphylococcus aureus; for MIC: read-out: MIC alone
Description: According to the agar plate dilution method defined by Japan Society of Chemotherapy, MIC (Minimum inhibitory concentration) was determined. CAMHA was prepared by adding 50 mg/l of Ca-ion, 25 mg/l of Mg-ion, and 2% of NaCl to Mueller-Hinton II Agar (MHA), and it was used as a medium for use in the measurement of sensitivity. The bacterial liquid was incubated at 37° C. overnight and diluted to 10^6 CFU/ml with saline.
MIC for gallic acid, various gallates and multivalent phenol derivatives alone with MRSA and MSSA were determined as described in experiment 2.

[1] = system: MRSA COL and MRSA Strain No. 5; assay: Potentiating effect of various gallates for antibacterial activity of oxacillin (MIC by broth microdilution method and FIC); format: cell-based, Staphylococcus aureus; conditions: combination with oxacillin
Description: According to the broth microdilution method defined by Japan Society of Chemotherapy, MIC was determined. CAMHA was prepared by adding 50 mg/l of Ca-ion, 25 mg/l of Mg-ion, and 2% of NaCl to MHB (Mueller-Hinton Broth), and it was used as a medium for use in the measurement of sensitivity. In 96-well microplates 100 μl of the medium for use in the measurement of sensitivity containing drugs was dispensed. The bacterial liquid was incubated at 37° C. overnight, diluted with saline and added to the plate so that the final concentration of the bacteria was 5×10^5 CFU/well. […] FIC (fractional inhibitory concentration) was calculated from the result and the potency of the effect of the combination use was evaluated.

[2] = ATCC 6538 / MRSA / MSSA, ATCC6538

For `CCCOC(=O)c1cc(O)c(O)c(O)c1` [Propyl gallate, n-propyl gallate], the MIC (MRSA and MSSA; [2]) was 125 µg/mL (≈ 589 µM), the MIC (MRSA and MSSA; COL) was 125 µg/mL (≈ 589 µM) and the MIC (MRSA and MSSA; MRSA #1) was 125 µg/mL (≈ 589 µM). For the same molecule, the MIC (MRSA and MSSA; MRSA #2) was 62.5 µg/mL (≈ 295 µM), the MIC (MRSA and MSSA; MRSA #3) was 125 µg/mL (≈ 589 µM) and the MIC (MRSA and MSSA; MRSA #4) was 125 µg/mL (≈ 589 µM). The MIC (MRSA and MSSA; MRSA #5) was 125 µg/mL (≈ 589 µM), the MIC (MRSA and MSSA; MRSA #6) was 62.5 µg/mL (≈ 295 µM) and the MIC (MRSA and MSSA; MRSA #7) was 125 µg/mL (≈ 589 µM). The MIC (MRSA and MSSA; MRSA #8) was 125 µg/mL (≈ 589 µM), the MIC (MRSA and MSSA; MRSA #9) was 62.5 µg/mL (≈ 295 µM) and the MIC (MRSA and MSSA; MRSA #10) was 62.5 µg/mL (≈ 295 µM). It also gave an MIC (MRSA and MSSA; MRSA #12) of 125 µg/mL (≈ 589 µM), an MIC (MRSA and MSSA; MRSA #16) of 125 µg/mL (≈ 589 µM) and an MIC (MRSA and MSSA; MRSA #17) of 62.5 µg/mL (≈ 295 µM). It also gave an MIC (MRSA and MSSA; MRSA #18) of 62.5 µg/mL (≈ 295 µM), an MIC (MRSA and MSSA; MRSA #20) of 125 µg/mL (≈ 589 µM) and an MIC (MRSA and MSSA; MRSA #21) of 125 µg/mL (≈ 589 µM). It also gave an MIC (MRSA and MSSA; MRSA #22) of 125 µg/mL (≈ 589 µM), an MIC (MRSA and MSSA; MRSA #24) of 125 µg/mL (≈ 589 µM) and an MIC (MRSA and MSSA; MSSA #1003) of 125 µg/mL (≈ 589 µM). It also gave an MIC (MRSA and MSSA; MSSA #1010) of 125 µg/mL (≈ 589 µM), an MIC (MRSA and MSSA; MSSA #1020) of 125 µg/mL (≈ 589 µM) and an MIC (MRSA and MSSA; MSSA #1023) of 62.5 µg/mL (≈ 295 µM). It also gave an MIC (MRSA and MSSA; MSSA #1029) of 62.5 µg/mL (≈ 295 µM), an MIC (MRSA and MSSA; MSSA #1032) of 125 µg/mL (≈ 589 µM) and an MIC50 (MRSA and MSSA; compound alone, over all strains of Table 3-1, read-out: MIC50) of 125 µg/mL (≈ 589 µM). The FIC value ([1]; MRSA COL) was 0.258 and the FIC value ([1]; MRSA Strain No. 5) was 0.258.
Work on `CCCCCCOC(=O)c1cc(O)c(O)c(O)c1` [Hexyl gallate, n-hexyl gallate] yielded an MIC50 (MRSA and MSSA) of 62.5 µg/mL (≈ 246 µM), an MIC (MRSA and MSSA; [2]) of 31.3 µg/mL (≈ 123 µM) and an MIC (MRSA and MSSA; COL) of 31.3 µg/mL (≈ 123 µM). For the same molecule, the MIC (MRSA and MSSA; MRSA #1) was 62.5 µg/mL (≈ 246 µM), the MIC (MRSA and MSSA; MRSA #2) was 31.3 µg/mL (≈ 123 µM) and the MIC (MRSA and MSSA; MRSA #3) was 31.3 µg/mL (≈ 123 µM). It also gave an MIC (MRSA and MSSA; MRSA #4) of 31.3 µg/mL (≈ 123 µM), an MIC (MRSA and MSSA; MRSA #5) of 31.3 µg/mL (≈ 123 µM) and an MIC (MRSA and MSSA; MRSA #6) of 31.3 µg/mL (≈ 123 µM). For the same molecule, the MIC (MRSA and MSSA; MRSA #7) was 31.3 µg/mL (≈ 123 µM), the MIC (MRSA and MSSA; MRSA #8) was 31.3 µg/mL (≈ 123 µM) and the MIC (MRSA and MSSA; MRSA #9) was 31.3 µg/mL (≈ 123 µM). For the same molecule, the MIC (MRSA and MSSA; MRSA #10) was 31.3 µg/mL (≈ 123 µM), the MIC (MRSA and MSSA; MRSA #12) was 62.5 µg/mL (≈ 246 µM) and the MIC (MRSA and MSSA; MRSA #16) was 62.5 µg/mL (≈ 246 µM). For the same molecule, the MIC (MRSA and MSSA; MRSA #17) was 62.5 µg/mL (≈ 246 µM), the MIC (MRSA and MSSA; MRSA #18) was 62.5 µg/mL (≈ 246 µM) and the MIC (MRSA and MSSA; MRSA #20) was 62.5 µg/mL (≈ 246 µM). For the same molecule, the MIC (MRSA and MSSA; MRSA #21) was 62.5 µg/mL (≈ 246 µM), the MIC (MRSA and MSSA; MRSA #22) was 62.5 µg/mL (≈ 246 µM) and the MIC (MRSA and MSSA; MRSA #24) was 62.5 µg/mL (≈ 246 µM). It also gave an MIC (MRSA and MSSA; MSSA #1003) of 62.5 µg/mL (≈ 246 µM), an MIC (MRSA and MSSA; MSSA #1010) of 62.5 µg/mL (≈ 246 µM) and an MIC (MRSA and MSSA; MSSA #1020) of 62.5 µg/mL (≈ 246 µM). For the same molecule, the MIC (MRSA and MSSA; MSSA #1023) was 62.5 µg/mL (≈ 246 µM), the MIC (MRSA and MSSA; MSSA #1029) was 62.5 µg/mL (≈ 246 µM) and the MIC (MRSA and MSSA; MSSA #1032) was 62.5 µg/mL (≈ 246 µM). The FIC value ([1]; MRSA COL) was 0.5 and the FIC value ([1]; MRSA Strain No. 5) was 0.502.
`CCCCCCCOC(=O)c1cc(O)c(O)c(O)c1` [Heptyl gallate, n-heptyl gallate] gave an MIC50 (MRSA and MSSA) of 31.3 µg/mL (≈ 117 µM), an MIC (MRSA and MSSA; ATCC 6538 / MRSA / MSSA) of 31.3 µg/mL (≈ 117 µM) and an MIC (MRSA and MSSA; COL) of 31.3 µg/mL (≈ 117 µM). For the same molecule, the MIC (MRSA and MSSA; MRSA #1) was 31.3 µg/mL (≈ 117 µM), the MIC (MRSA and MSSA; MRSA #2) was 31.3 µg/mL (≈ 117 µM) and the MIC (MRSA and MSSA; MRSA #3) was 31.3 µg/mL (≈ 117 µM). For the same molecule, the MIC (MRSA and MSSA; MRSA #4) was 31.3 µg/mL (≈ 117 µM), the MIC (MRSA and MSSA; MRSA #5) was 31.3 µg/mL (≈ 117 µM) and the MIC (MRSA and MSSA; MRSA #6) was 31.3 µg/mL (≈ 117 µM). The MIC (MRSA and MSSA; MRSA #7) was 31.3 µg/mL (≈ 117 µM), the MIC (MRSA and MSSA; MRSA #8) was 31.3 µg/mL (≈ 117 µM) and the MIC (MRSA and MSSA; MRSA #9) was 31.3 µg/mL (≈ 117 µM). The MIC (MRSA and MSSA; MRSA #10) was 31.3 µg/mL (≈ 117 µM), the MIC (MRSA and MSSA; MRSA #12) was 31.3 µg/mL (≈ 117 µM) and the MIC (MRSA and MSSA; MRSA #16) was 31.3 µg/mL (≈ 117 µM). For the same molecule, the MIC (MRSA and MSSA; MRSA #17) was 31.3 µg/mL (≈ 117 µM), the MIC (MRSA and MSSA; MRSA #18) was 31.3 µg/mL (≈ 117 µM) and the MIC (MRSA and MSSA; MRSA #20) was 31.3 µg/mL (≈ 117 µM). The MIC (MRSA and MSSA; MRSA #21) was 31.3 µg/mL (≈ 117 µM), the MIC (MRSA and MSSA; MRSA #22) was 31.3 µg/mL (≈ 117 µM) and the MIC (MRSA and MSSA; MRSA #24) was 31.3 µg/mL (≈ 117 µM). For the same molecule, the MIC (MRSA and MSSA; MSSA #1003) was 31.3 µg/mL (≈ 117 µM), the MIC (MRSA and MSSA; MSSA #1010) was 31.3 µg/mL (≈ 117 µM) and the MIC (MRSA and MSSA; MSSA #1020) was 31.3 µg/mL (≈ 117 µM). It also gave an MIC (MRSA and MSSA; MSSA #1023) of 31.3 µg/mL (≈ 117 µM), an MIC (MRSA and MSSA; MSSA #1029) of 31.3 µg/mL (≈ 117 µM) and an MIC (MRSA and MSSA; MSSA #1032) of 31.3 µg/mL (≈ 117 µM). For the same molecule, the FIC value ([1]; MRSA COL) was 0.563 and the FIC value ([1]; MRSA Strain No. 5) was 0.75.
